# Measured values taken from US10414775B2 (Merck Sharp & Dohme Corp., priority 2016, dated 2019).
# Target: T1, Human CYP8B1 (Homo sapiens, UniProt Q9UNU6)
# T1 construct: tissue Xenotech; host or cells: human liver microsomes
# T1 sequence (Q9UNU6 1-501): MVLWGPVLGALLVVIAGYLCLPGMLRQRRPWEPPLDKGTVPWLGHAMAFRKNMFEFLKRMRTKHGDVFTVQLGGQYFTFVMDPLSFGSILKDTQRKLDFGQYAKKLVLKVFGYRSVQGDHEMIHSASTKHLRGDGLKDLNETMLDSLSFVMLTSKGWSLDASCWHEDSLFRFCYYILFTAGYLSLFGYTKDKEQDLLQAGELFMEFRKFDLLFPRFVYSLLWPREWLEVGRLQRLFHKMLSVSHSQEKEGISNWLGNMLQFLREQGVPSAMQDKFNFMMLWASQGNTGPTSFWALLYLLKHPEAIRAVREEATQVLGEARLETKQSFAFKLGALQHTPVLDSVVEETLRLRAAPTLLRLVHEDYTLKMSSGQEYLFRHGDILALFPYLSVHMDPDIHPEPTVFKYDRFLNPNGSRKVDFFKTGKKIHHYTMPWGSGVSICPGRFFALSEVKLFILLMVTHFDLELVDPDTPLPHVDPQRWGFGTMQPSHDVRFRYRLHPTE
# Assay: Human Cyp8B1 Liver Microsome Assay
# Type: biochemical
# Conditions: human liver microsomes; substrate 7α-hydroxy-4-cholesten-3-one, NADPH; 30 min pre-incubation, 45 min reaction; RapidFire MS readout
# In short: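 Human liver microsomes (65 μg/ml, 0.1 M phosphate pH 7.4) preincubated 30 min at room temperature with inhibitor (1.25% DMSO final), then reacted 45 min with 7α-hydroxy-4-cholesten-3-one and NADPH. 7α,12α-dihydroxy product quantified by RapidFire ESI+ MRM against d7 internal standard; IC50 from four-parameter logistic fit.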
row,SMILES,IC50 [nM]
1,"C[C@@H]1CN(c2c(Cl)cnc3cc(-c4ncco4)ccc23)CC[C@@H]1C(=O)N1CCn2c(nnc2C2CC2)C1 [Example 78, ((3S,4S)-1-(3-chloro-7-(oxazol-2-yl)quinolin-4-yl)-3-methylpiperidin-4-yl) (3-cyclopropyl-5,6-dihydro-[1,2,4]triazolo[4,3-a]pyrazin-7(8H)-yl)methanone]",0.5
2,"C[C@@H]1CN(c2ccnc3cc(-c4ccncc4)ccc23)CC[C@@H]1C(=O)N1CCn2c(nnc2C(F)(F)F)C1 [Example 79, ((3S,4S)-3-methyl-1-(7-(pyridin-4-yl)quinolin-4-yl)piperidin-4-yl)(3-(trifluoromethyl)-5,6-dihydro-[1,2,4]triazolo[4,3-a]pyrazin-7(8H)-yl)methanone]",0.7
3,C[C@@H]1CN(c2ccnc3cc(-c4ccccc4)ccc23)CC[C@@H]1C(=O)N1CCn2c(nnc2C(F)(F)F)C1 [Example 80],0.4
